Reference: patent US11529311B2, “Method of using nebulized alcohol for analgesia” (BN Intellectual Properties, Inc., priority 2021, dated 2022)

Key:
[1] = Description: Example 1: A first patient treatment example is that of an adult experiencing pain from multiple neck injuries and replaced vertebrae who was treating pain using 60 mg Oxycontin® (30 mg in morning and night) and 6 doses of Percocet® daily as needed before ethanol treatment. The patient's opioid usage history spanned 11 years. The first patient also took Ambien® at night to promote sleep.
The first patient takes nebulized alcohol in the morning and at bedtime (about 3-4 inhalations each time), wakes in the night to use the bathroom, and occasionally takes nebulized alcohol during the night.

[2] = remark: listed apart in the source
Description: Example 3: A third patient experienced acute pain from a chronic back injury which occurred during a car accident approximately 40 years earlier. The patient experienced acute pain for about 8 hours, requiring assistance to lower themself to sit in a chair, to stand up from the chair, and to walk about.

Remark: listed apart in the source
[3] = adult, 1-2 inhalations
From the text: Example 2: A second patient treatment is of an adult experiencing sinus headaches using nebulized ethanol solution.

[4] = over the course of ethanol treatment
[5] = patient report, result of reduced Oxycontin doses
[6] = patient report, nebulized alcohol morning and bedtime

Question: Which results are given for Ethyl alcohol [nebulized ethanol]?
Answer: reported levels of pain ([1]; adult male, 11 years of opioid use, over the course of ethanol treatment, about 3-4 inhalations morning and bedtime): significantly lower; Oxycontin usage ([1]; after 6 months of ethanol therapy, 60 mg daily before treatment): 10 mg/day; Percocet usage ([1]; after 6 months of ethanol therapy, 6 doses daily as needed before treatment): no Percocet® during the day; opioid usage [1, 4]: reduced; physical stamina, physical performance (kidney and bowel function), and mental acuity [1, 4]: improved; alertness, attention, and mental acuity [1, 5]: increased; bowel function [1, 5]: increased bowel function; mobility [1, 5]: greater mobility (able to resume dance activities); posture [1, 5]: improved posture (able to hold head in a vertical position); renal function [1, 5]: increased renal function (no more water retention/bloating); quality of sleep [1, 6]: increased; usage of sleep aids to counteract discomfort and pain from injuries [1, 6]: reduced; pain relief after repeated treatment ([2]; 4 inhalations per treatment): complete relief; pain relief after initial session ([2]; 5 inhalations per treatment): complete pain relief; time until pain recurred after the initial session ([2]; 5 inhalations per treatment): approximately 12 hours; time to complete remission of pain ([2]; in vivo): 48 h; time to remission relative to time with other analgesics prior to ethanol therapy ([2]; in vivo): approximately 50%; duration of brain effects (euphoria, and so forth) (persons in the absence of significant pain): about 2 hours; reported feeling (side effects) (persons who take nebulized alcohol for pain): moderate sleepiness or drowsiness, but not “buzzed” or “intoxicated”; rate of achieving pain relief compared with other treatments (sinus rinse, other pain medications) [3]: significantly faster
